Results published in patent publication US11273148B2, “Targeted epigenetic therapy for inherited aortic aneurysm condition” (The Johns Hopkins University, priority 2017, dated 2022).
“Also recorded” adds a separate entry of the source.

Legend:
[1] = tested on: VSMC/Ski G34D/+ mice; experiment: Aortic root histology (VVG and Masson-trichrome staining): wall thickness, elastin fiber disruptions; format: in vivo, mouse; conditions: for Final absolute aortic wall thickness / Final number of disruptions in elastin fiber architecture: C646 5 mg/kg/day IP, 12 weeks, aortic root sections, +/−SEM
Protocol: According to a previously described protocol with slight modification (1), mice that were analyzed for aortic histology had latex infused into the left ventricle through descending abdominal aorta. Mice were then fixed for 24 hours in 10% neutral buffered formalin and then switched into 70% ethanol until histological analysis was performed.
(§1) C646 (Selleckchem, #S7152) was reconstituted in 10% DMSO (Sigma) dissolved in PBS, and administered daily by intraperitoneal (IP) injection at dose of 5 mg/kg/day. Treatment was initiated at 8 weeks of age and continued for 12 weeks. 10% DMSO in PBS was administered as a control.
According to previously described protocols with slight modifications (1), latex-infused heart and aorta were removed from body and transected just below the level of the aortic annulus, and just above aortic root, and 2-3 mm transverse sections were mounted in 4% agar prior to paraffin fixation. Five micron aortic sections underwent Verhoeff-van Giesen (VVG) and Masson's Trichrome staining, and were imaged 40× magnification, using a Nikon Eclipse E400 microscope. Aortic wall thickness was measured of four sites of four representative sections for each mouse and the disruptions of elastin fiber architecture were counted in four sections every 25 micron from aortic annulus. All analyses were performed blinded to genotype and treatment arm and the results were averaged.

[2] = tested on: SGS patient fibroblasts; experiment: qPCR of TGFβ target genes in TGFβ1-stimulated primary human dermal fibroblasts; format: cell-based; conditions: for Expression level of COL3A1 and FN1 relative to β-actin / Expression level of SKI and SMAD7 relative to β-actin: control and SGS patient fibroblasts, vs vehicle treated
Protocol: Primary human dermal fibroblasts were derived from forearm skin biopsies of two controls and two patients with Shprintzen-Goldberg syndrome from previously described. The fibroblasts were cultured in Dulbecco's modified eagle medium (DMEM) with 10% fetal bovine serum (FBS) in the presence of antibiotics and passaged confluence. According to previously described protocols with slight modifications (2), all cell culture experiments were conducted in serum-starved media for 24 hours prior to drug treatment. Stimulation was performed using 10 ng/ml recombinant human TGFβ1 (R&D system). […] Cells were collected at baseline, 6 hours after TGFβ1 stimulation. RNA was extracted from the cells using Trizol (ThermoFisher) by RNeasy mini kit (QIAGEN), as per the manufacturer's manual.
Total RNA was isolated from mouse aortas or cultured cells by RNeasy mini kit (QIAGEN), as per the manufacturer's manual. Quantitative PCR was performed in triplicate with TaqMan Universal PCR Master Mix using an ABI Prism 7900 HT QPCR machine (all from Applied Biosystems), as per the manufacturer's manual. The following prevalidated TaqMan probes were used to detect specific transcripts: Mm00801666_g1 (Collal), Mm01254476_m1 (Col3A1), Mm01256744_m1 (Fn1), Mm04205640_g1 (Cdkn1a), Mm01192932_g1 (Ctgf), and Mm00435860_m1 (Serpine1), Mm00448744_m1 (Ski), Mm00456917_m1 (Skil), Mm00484742_m1 (Smad7) and Mm00607939_s1 (Actb) (Life Technologies). For human samples, the following probes were used: Hs00943809_m1 (COL3A1), Hs00365052_m1 (FN1), Hs00161707_m1 (SKI), Hs01045418_m1 (SKIL) and Hs01060665_g1 (ACTB). Reactions were run in triplicate, and relative quantification for each transcript was obtained by normalizing against housekeeping control transcript such as β-ACTIN (ACTB) according to the formula 2^−Ct/2^−Ct(ACTB).

[3] = tested on: TGFβ target genes; experiment: qPCR of TGFβ target genes in mouse aorta; format: in vivo; conditions: C646 treated vs DMSO treated VSMC/Ski G34D/+ mice
Description: For quantitative RT-PCR and chromatin immunoprecipitation, mice aortic root and ascending aorta (above aortic root to the origin of right brachiocephalic trunk) harvested separately, snap-frozen in liquid nitrogen and stored at minus 80 degrees Celsius until processed. For RNA extraction, Aortas were homogenized in Trizol (ThermoFisher) by FastPrep-24 (MP Biomedicals, LLC.), as per the manufacturer's manual. After homogenization, RNA was extracted by RNeasy mini kit (QIAGEN), as per the manufacturer's manual. RNA samples were then stored once more at minus 80 degrees until quantitative RT-PCR experiment was performed.
C646 (Selleckchem, #S7152) was reconstituted in 10% DMSO (Sigma) dissolved in PBS, and administered daily by intraperitoneal (IP) injection at dose of 5 mg/kg/day. Treatment was initiated at 8 weeks of age and continued for 12 weeks. […]
Total RNA was isolated from mouse aortas or cultured cells by RNeasy mini kit (QIAGEN), as per the manufacturer's manual. Quantitative PCR was performed in triplicate with TaqMan Universal PCR Master Mix using an ABI Prism 7900 HT QPCR machine (all from Applied Biosystems), as per the manufacturer's manual. […] Reactions were run in triplicate, and relative quantification for each transcript was obtained by normalizing against housekeeping control transcript such as β-ACTIN (ACTB) according to the formula 2^−Ct/2^−Ct(ACTB).

[4] = tested on: histone 3 lysine 27 acetylation (H3K27ac); experiment: Immunofluorescent detection of H3K27ac in aortic roots; format: in vivo, mouse; conditions: VSMC/Ski G34D/+ mice, C646 5mg/kg/day vs DMSO-treated
Protocol: For aorta frozen section, harvested aorta with heart was fixed in fresh 4% paraformaldehyde in PBS at 4 degree overnight and then placed in cold 30% sucrose in PBS solution and incubated at 4 degree overnight again. Tissue was then embedded in Tissue-Tek O.C.T compound ad snap-frozen in liquid nitrogen and stored at minus 80 degree until processed.
as §1
Immunofluorescence staining was performed as previous described (3). Frozen 10 μm long-axis view sections were obtained with a cryostat and mounted on glass slides. Sections were dried for at room temperature for overnight prior to staining. Sections were permeabilized in staining buffer (PBS containing 0.1% Triton-X 100) for 30 minutes and then incubated with Fc Receptor Block from Innovex for 30 minutes at room temperature, washed briefly in staining buffer, and then incubated again in blocking solution (0.1% Triton-X 100, 1:50 goat serum, 0.3M glycine) for 30 minutes. […]

[5] = tested on: VSMC/Ski G34D/+ mice; experiment: Aortic root diameter and growth by echocardiography in C646-treated mice; format: in vivo, mouse; conditions: for Final absolute aortic root diameter: C646 5 mg/kg/day IP from 8 weeks of age; for Final absolute aortic root diameter / Final absolute aortic root growth rate: 12 weeks of treatment, +/−SEM; for Final absolute aortic root growth rate: C646 5 mg/kg/day IP
Protocol: as §1
Nair hair removal cream was used to remove fur from the anterior thorax of the mice the day prior to echocardiography. According to previously described with slight modifications (1), all echocardiography were performed on mice that were awake and unsedated with the use of the Vevo 2100 imaging system and 40 MHz transducer (Visualsonics). Mice were imaged at 8 weeks of age as a baseline and every 4 weeks thereafter, until 20 weeks of age. Mice aorta were imaged in the parasternal long-axis view. Three separate measurements of the maximal internal dimension at the sinus of Valsalva during systole were made in separate cardiac cycles and averaged. All imaging and analysis was performed blinded to genotype and treatment arm.

[6] = C646 2004 for 24 hours pre-treated before TGFβ1 stimulation
[7] = C646 2004 for 24 hours pre-treated before TGFβ1 stimulation (10 ng/ml for 6 hours)
[8] = SD208 10 μM for 1 hour pre-treated before TGFβ1 stimulation (10 ng/ml for 6 hours)

SMILES | Aortic wall architecture: medial thickening, elastic fiber fragmentation, collagen deposition (in words) ([1]; C646 treated vs DMSO treated VSMC/Ski G34D/+ mice, VVG and Masson-trichrome staining) | Final absolute aortic wall thickness ([1]; Control mice) | Final number of disruptions in elastin fiber architecture ([1]; Control mice) | Final absolute aortic wall thickness ([1]; VSMC/Ski G34D/+ mice) | Final number of disruptions in elastin fiber architecture ([1]; VSMC/Ski G34D/+ mice) | Difference of COL3A1 and FN1 expression level between C646 treated SGS patient fibroblast and vehicle treated control fibroblasts [2, 6] | Difference of SKI expression level between C646 treated SGS patient fibroblast and vehicle treated control fibroblast [2, 6] | TGFβ target gene expression in SGS patient fibroblasts ([2]; comparable efficiency of a TGFβ type I receptor (Alk5) kinase inhibitor) | Expression level of COL3A1 and FN1 relative to β-actin [2, 7] | Expression level of SKI and SMAD7 relative to β-actin [2, 7] | Expression levels of TGFβ target genes relative to β-actin in aorta [3] | H3K27 acetylation in aortic root [4] | Aortic root diameter (in words) ([5]; C646 treated vs DMSO treated VSMC/Ski G34D/+ mice, echocardiogram) | Final absolute aortic root diameter ([5]; Control mice, echocardiogram) | Final absolute aortic root growth rate ([5]; Control mice) | Final absolute aortic root diameter ([5]; VSMC/Ski G34D/+ mice, echocardiogram) | Final absolute aortic root growth rate ([5]; VSMC/Ski G34D/+ mice) | Aneurysm progression ([5]; systemically-administered C646 in Ski VSMC:G34D/+ mice) | Expression level of COL3A1 and FN1 relative to β-actin [2, 8] | Expression level of SKI and SMAD7 relative to β-actin [2, 8]
CC1=NN(c2ccc(C(=O)O)cc2)C(=O)C1=Cc1ccc(-c2cc(C)c(C)cc2[N+](=O)[O-])o1 (stereo in doubt) [C646, 4-[(4Z)-4-[[5-(4,5-dimethyl-2-nitrophenyl)furan-2-yl]methylidene]-3-methyl-5-oxopyrazol-1-yl]benzoic acid] | reduced medial thickening and elastic fiber fragmentation and the recovered collagen deposition; also recorded: preserves aortic wall architecture; also recorded: preservation of aortic wall architecture | 58.547+/−1.415 μm | 1+/−0.577 | 63.438+/−1.818 μm | 6+/−1.155 | no significant difference | no significant difference | normalized TGFβ target gene expression | significantly decreased expression level | significantly decreased expression level | decreased expression levels of TGFβ target genes except COL1A1, SKI and SKIL; also recorded: normalizes gene expression in the aorta; also recorded: normalization of the TSR | decreased H3K27 acetylation; also recorded: prevention of excessive Histone 3 Lysine 27 (H3K27) acetylation | normalized aortic root diameter; also recorded: rescued aortic root diameter | 1.686+/−0.024 mm | 0.067+/−0.023 mm/12 weeks | 1.848+/−0.045 mm | 0.119+/−0.042 mm/12 weeks | abrogates aneurysm progression; also recorded: prevented aneurysm progression | – | –
Fc1ccc(Cl)cc1-c1nc(Nc2ccncc2)c2nccnc2n1 [SD208] | – | – | – | – | – | – | – | – | – | – | – | – | – | – | – | – | – | – | significantly decreased expression level | significantly decreased expression level
